Each block holds one molecule with its values, some of them ahead of it.
How the values were obtained:
Hepatitis C virus [1] = test: Antiviral activity against Hepatitis C virus genotype 1b replicon infected in Lunet cells by luciferase reporter gene assay; format: functional, Hepacivirus hominis
[2] = Half life in simulated gastric fluid; format: physicochemical
[3] = Half life in human plasma; format: ADME, cell-free
Hepatitis C virus [4] = test: Antiviral activity against Hepatitis C virus genotype 1b replicon infected in clone A cells assessed as inhibition of viral replication by RT-PCR analysis; format: functional, Hepacivirus hominis
[5] = Cytotoxicity against human HuH7 cells; format: cell-based; settings: Huh-7 cells
[6] = Half life in simulated intestinal fluid; format: physicochemical
[7] = Half life in human liver S9 fraction; format: ADME, subcellular
[8] = Half life in rat plasma; format: ADME, cell-free
[9] = AUClast in rat at 40 mg/kg, po administered QD measured after 7 days; format: ADME, organism-based; set-up: dose 40 mg/kg, route oral; settings: plasma
HepG2 [10] = test: Mitochondrial toxicity against human HepG2 cells assessed as decrease in ribosomal DNA up to 100 uM after 14 days by RT-PCR analysis; format: cell-based; settings: hepg2, 336 h
[11] = AUC (infinity) in rat at 40 mg/kg, po administered QD measured after 1 day; format: ADME, organism-based; set-up: time infinity, dose 40 mg/kg, route oral; settings: plasma
Hepatitis C virus [12] = test: Ratio of PSI-352938 EC90 to compound EC90 for Hepatitis C virus genotype 1b infected in clone A cells; format: functional, Hepacivirus hominis
Rattus norvegicus [13] = test: Tlast in rat at 40 mg/kg, po administered QD measured after 1 day; format: ADME, organism-based; set-up: dose 40 mg/kg, route oral; settings: in vivo, 24 h
CCRF-CEM [14] = test: Mitochondrial toxicity against human CEM cells assessed as decrease in ribosomal DNA up to 100 uM after 14 days by RT-PCR analysis; format: cell-based; settings: 336 h
Huh-7 [15] = test: Prodrug activation in human HuH7 cells infected with HCV genotype 1b assessed as Tmax of beta-D-2'-deoxy-2'-alpha-fluoro-2'-beta-C-methylguanosine triphosphate level at 100 uM; format: cell-based; settings: huh-7, 100 µM
Rattus norvegicus [16] = test: Prodrug activation in rat liver assessed as beta-D-2'-deoxy-2'-alpha-fluoro-2'-beta-C-methylguanosine diphosphate level at 40 mg/kg, po administered QD as repeated dose measured at 4 hrs post-dosing on day 8; format: organism-based; set-up: dose 40 mg/kg, route oral; settings: in vivo
[17] = AUC (infinity) in rat at 40 mg/kg, po administered QD measured after 7 days; format: ADME, organism-based; set-up: time infinity, dose 40 mg/kg, route oral; settings: plasma
Hepatitis C virus [18] = test: Antiviral activity against Hepatitis C virus expressing NS5B S282T mutant by cell-based replicon assay; format: functional, Hepacivirus hominis
[19] = Half life in rat at 40 mg/kg, po administered QD measured after 1 day; format: ADME, organism-based; set-up: dose 40 mg/kg, route oral; settings: in vivo
Rattus norvegicus [20] = test: Tlast in rat at 40 mg/kg, po administered QD measured after 7 days; format: ADME, organism-based; set-up: dose 40 mg/kg, route oral; settings: in vivo, 168 h
[21] = Tmax in rat at 40 mg/kg, po administered QD measured after 7 days; format: ADME, organism-based; set-up: dose 40 mg/kg, route oral; settings: in vivo
CCRF-CEM [22] = test: Mitochondrial toxicity against human CEM cells assessed as decrease in mitochondrial COX2 DNA up to 100 uM after 14 days by RT-PCR analysis; format: cell-based; settings: 336 h
Rattus norvegicus [23] = test: Prodrug activation in rat liver assessed as beta-D-2'-deoxy-2'-alpha-fluoro-2'-beta-C-methylguanosine monophosphate level at 40 mg/kg, po administered QD as repeated dose measured at 4 hrs post-dosing on day 8; format: organism-based; set-up: dose 40 mg/kg, route oral; settings: in vivo
[24] = Tmax in rat at 40 mg/kg, po administered QD measured after 1 day; format: ADME, organism-based; set-up: dose 40 mg/kg, route oral; settings: in vivo
Rattus norvegicus [25] = test: Prodrug activation in rat liver assessed as total nucleotide level at 40 mg/kg, po administered QD as repeated dose measured at 4 hrs post-dosing on day 8; format: organism-based; set-up: dose 40 mg/kg, route oral; settings: in vivo
Hepatocyte = test: Prodrug activation in human primary hepatocytes assessed as assessed as Tmax of beta-D-2'-deoxy-2'-alpha-fluoro-2'-beta-C-methylguanosine triphosphate level at 100 uM; format: cell-based, Liver
[26] = AUClast in rat at 40 mg/kg, po administered QD measured after 1 day; format: ADME, organism-based; set-up: dose 40 mg/kg, route oral; settings: plasma
BXPC-3 = test: Cytotoxicity against human BxPC3 cells up to 100 uM after 8 days by MTT assay; format: cell-based; settings: bxpc-3, 192 h
Rattus norvegicus [27] = test: Prodrug conversion in rat liver assessed as beta-D-2'-deoxy-2'-alpha-fluoro-2'-beta-C-methylguanosine triphosphate level at 40 mg/kg, po administered QD as repeated dose measured at 4 hrs post-dosing on day 8; format: ADME, organism-based; set-up: dose 40 mg/kg, route oral; settings: in vivo
CCRF-CEM [28] = test: Cytotoxicity against human CEM cells up to 100 uM after 8 days by MTT assay; format: cell-based; settings: 192 h
Rattus norvegicus [29] = test: Prodrug activation in rat liver assessed as free nucleoside level at 40 mg/kg, po administered QD as repeated dose measured at 4 hrs post-dosing on day 8; format: organism-based; set-up: dose 40 mg/kg, route oral; settings: in vivo
[30] = Cmax in rat at 40 mg/kg, po administered QD measured after 7 days; format: ADME, organism-based; set-up: dose 40 mg/kg, route oral; settings: in vivo
HepG2 [31] = test: Mitochondrial toxicity against human HepG2 cells assessed as decrease in mitochondrial COX2 DNA up to 100 uM after 14 days by RT-PCR analysis; format: cell-based; settings: hepg2, 336 h
HepG2 [32] = test: Cytotoxicity against human HepG2 cells up to 100 uM after 8 days by MTT assay; format: cell-based; settings: hepg2, 192 h
[33] = Half life in rat at 40 mg/kg, po administered QD measured after 7 days; format: ADME, organism-based; set-up: dose 40 mg/kg, route oral; settings: in vivo
Huh-7 [34] = test: Cytotoxicity against human HuH7 cells up to 100 uM after 8 days by MTT assay; format: cell-based; settings: huh-7, 192 h
[35] = Cmax in rat at 40 mg/kg, po administered QD measured after 1 day; format: ADME, organism-based; set-up: dose 40 mg/kg, route oral; settings: in vivo

Structure (SMILES): COc1nc(N)nc2c1ncn2[C@@H]1O[C@@H]2COP(=O)(OC3CCC3)O[C@H]2[C@@]1(C)F (some centres undefined)
AUC(0-t) at 168 h [9]: 13900 ng·h/mL
EC90 (Hepatitis C virus [1]): 46 nM
Activity (HepG2 [10]): Non-toxic
AUC(0-inf) [11]: 9500 ng·h/mL
Ratio (Hepatitis C virus [12]): >=10
Tlast (Rattus norvegicus [13]): 20 h
Activity (CCRF-CEM [14]): Non-toxic
Tmax (Huh-7 [15]): 48 h
Drug metabolism (Rattus norvegicus [16]): 32.36 nmol/g
AUC(0-inf) [17]: 13900 ng·h/mL
EC90 (Hepatitis C virus [18]): 67 nM
half-life [19]: 1.32 h
half-life [2]: < 4 h
Tlast (Rattus norvegicus [20]): 20 h
Tmax [21]: 4 h
Activity (CCRF-CEM [22]): Non-toxic
half-life [3]: 18.3 h
EC90 (Hepatitis C virus [4]): 135 nM
Drug metabolism (Rattus norvegicus [23]): 29.9 nmol/g
CC90 [5]: > 100000 nM
half-life [6]: < 6 h
Tmax [24]: 1.67 h
Drug metabolism (Rattus norvegicus [25]): 65.93 nmol/g
Tmax (Hepatocyte): > 48 h
AUC(0-t) at 24 h [26]: 9480 ng·h/mL
Activity (BXPC-3): Non-toxic
Drug metabolism (Rattus norvegicus [27]): 3.69 nmol/g
half-life [7]: 2.6 h
Activity (CCRF-CEM [28]): Non-toxic
Drug metabolism (Rattus norvegicus [29]): 15.5 nmol/g
Cmax [30]: 5170 ng/mL
Activity (HepG2 [31]): Non-toxic
Activity (HepG2 [32]): Non-toxic
half-life [8]: 15.8 h
half-life [33]: 1.43 h
Activity (Huh-7 [34]): Non-toxic
Cmax [35]: 2080 ng/mL

Structure (SMILES): COc1nc(N)nc2c1ncn2[C@@H]1O[C@@H]2COP(=O)(O)O[C@H]2[C@@]1(C)F
EC90 (Hepatitis C virus [1]): 180 nM
CC90 [5]: > 100000 nM

Structure (SMILES): CCOP1(=O)OC[C@H]2O[C@@H](n3cnc4c(OC)nc(N)nc43)[C@](C)(F)[C@@H]2O1 (some centres undefined)
EC90 (Hepatitis C virus [1]): 35.8 nM
CC90 [5]: > 10000 nM

Structure (SMILES): CCCOP1(=O)OC[C@H]2O[C@@H](n3cnc4c(OCC)nc(N)nc43)[C@](C)(F)[C@@H]2O1 (some centres undefined)
EC90 (Hepatitis C virus [4]): 13300 nM
CC90 [5]: > 100000 nM

Structure (SMILES): CC(C)Oc1nc(N)nc2c1ncn2[C@@H]1O[C@@H]2COP(=O)(OCc3ccccc3)O[C@H]2[C@@]1(C)F (some centres undefined)
EC90 (Hepatitis C virus [1]): 40 nM
CC90 [5]: > 100000 nM

Structure (SMILES): CC(C)Oc1nc(N)nc2c1ncn2[C@@H]1O[C@@H]2COP(=O)(OC3CCCC3)O[C@H]2[C@@]1(C)F (some centres undefined)
AUC(0-t) at 168 h [9]: 170 ng·h/mL
EC90 (Hepatitis C virus [1]): 60 nM
Activity (HepG2 [10]): Non-toxic
AUC(0-inf) [11]: 770 ng·h/mL
Tlast (Rattus norvegicus [13]): 10.7 h
Activity (CCRF-CEM [14]): Non-toxic
Tmax (Huh-7 [15]): 72 h
Drug metabolism (Rattus norvegicus [16]): 17.61 nmol/g
AUC(0-inf) [17]: 210 ng·h/mL
EC90 (Hepatitis C virus [18]): 23 nM
half-life [19]: 2.83 h
half-life [2]: 9 h
Tlast (Rattus norvegicus [20]): 8 h
Tmax [21]: 2.33 h
Activity (CCRF-CEM [22]): Non-toxic
half-life [3]: > 23.4 h
EC90 (Hepatitis C virus [4]): 184 nM
Drug metabolism (Rattus norvegicus [23]): 20.85 nmol/g
CC90 [5]: > 100000 nM
half-life [6]: 15 h
Tmax [24]: 3.67 h
Drug metabolism (Rattus norvegicus [25]): 40.5 nmol/g
Tmax (Hepatocyte): 24 h
AUC(0-t) at 24 h [26]: 340 ng·h/mL
Activity (BXPC-3): Non-toxic
Drug metabolism (Rattus norvegicus [27]): 2.02 nmol/g
half-life [7]: > 24 h
Activity (CCRF-CEM [28]): Non-toxic
Drug metabolism (Rattus norvegicus [29]): 7.47 nmol/g
Cmax [30]: 50 ng/mL
Activity (HepG2 [31]): Non-toxic
Activity (HepG2 [32]): Non-toxic
half-life [8]: > 24 h
half-life [33]: 3.32 h
Activity (Huh-7 [34]): Non-toxic
Cmax [35]: 80 ng/mL

Structure (SMILES): COc1nc(N)nc2c1ncn2[C@@H]1O[C@@H]2COP(=O)(OCc3ccccc3)O[C@H]2[C@@]1(C)F (some centres undefined)
EC90 (Hepatitis C virus [1]): 70 nM
CC90 [5]: > 10000 nM

Structure (SMILES): COc1nc(N)nc2c1ncn2[C@@H]1O[C@@H]2COP(=O)(OC3CCCCC3)O[C@H]2[C@@]1(C)F (some centres undefined)
EC90 (Hepatitis C virus [1]): 39 nM
CC90 [5]: > 10000 nM

Structure (SMILES): COc1nc(N)nc2c1ncn2[C@@H]1O[C@H](COP(=O)(N[C@@H](C)C(=O)OC(C)C)Oc2ccccc2)[C@@H](O)[C@@]1(C)F (some centres undefined)
Tmax (Huh-7 [15]): 24 h
half-life [2]: 16 h
half-life [3]: > 24 h
half-life [6]: > 20 h
Tmax (Hepatocyte): 8 h
half-life [7]: 0.44 h
half-life [8]: < 0.02 h

More lines, main results first:

EC90 (Hepatitis C virus [1]): 50 nM
half-life [2]: 2.6 h
half-life [3]: 11.7 h
EC90 (Hepatitis C virus [4]): 224 nM
half-life [6]: 4.2 h
half-life [7]: 6.3 h
half-life [8]: 8.6 h
Structure (SMILES): CC(C)Oc1nc(N)nc2c1ncn2[C@@H]1O[C@@H]2COP(=O)(OC3CCC3)O[C@H]2[C@@]1(C)F (some centres undefined)
CC90 [5]: > 100000 nM

EC90 (Hepatitis C virus [1]): 25.8 nM
half-life [2]: > 20 h
half-life [3]: > 24 h
EC90 (Hepatitis C virus [4]): 680 nM
half-life [6]: > 20 h
half-life [7]: > 24 h
half-life [8]: 5.6 h
Structure (SMILES): COc1nc(N)nc2c1ncn2[C@@H]1O[C@@H]2COP(=O)(OC(C)C)O[C@H]2[C@@]1(C)F (some centres undefined)
CC90 [5]: > 100000 nM

EC90 (Hepatitis C virus [1]): > 10000 nM
Structure (SMILES): CC(C)Oc1nc(N)nc2c1ncn2[C@@H]1O[C@@H]2COP(=O)(O)O[C@H]2[C@@]1(C)F

EC90 (Hepatitis C virus [1]): 2250 nM
Structure (SMILES): CCOP1(=O)OC[C@H]2O[C@@H](n3cnc4c(OC(C)C)nc(N)nc43)[C@](C)(F)[C@@H]2O1 (some centres undefined)

EC90 (Hepatitis C virus [1]): 300 nM
Structure (SMILES): CC(C)Oc1nc(N)nc2c1ncn2[C@@H]1O[C@@H]2COP(=O)(OC3CCCCC3)O[C@H]2[C@@]1(C)F (some centres undefined)

EC90 (Hepatitis C virus [1]): 740 nM
half-life [2]: > 20 h
half-life [3]: > 24 h
EC90 (Hepatitis C virus [4]): 677 nM
half-life [6]: > 20 h
half-life [7]: 16.3 h
half-life [8]: > 24 h
Structure (SMILES): CC(C)Oc1nc(N)nc2c1ncn2[C@@H]1O[C@@H]2COP(=O)(OC(C)C)O[C@H]2[C@@]1(C)F (some centres undefined)
CC90 [5]: > 100000 nM

From ChEMBL document CHEMBL2157997, “β-D-2'-α-F-2'-β-C-Methyl-6-O-substituted 3',5'-cyclic phosphate nucleotide prodrugs as inhibitors of hepatitis C virus replication: a structure-activity relationship study” (Bioorg Med Chem Lett, 2012)
